# Reference: patent US5219884A, “Immunosuppressant” (Taito Co., Ltd., priority 1990, dated 1993)
# Like-named read-outs stand apart in the source and are kept apart here.
# What was measured:
# [1] = cytotoxicity to mouse L929 cells; format: cell-based; conditions: mouse, l929 cells, read-out: Suppression
# Method: (§1) Cytotoxicity to mouse L929 cells was assayed as follows:
# (§2) L929 cells were suspended to the concentration of 1.5×10^5 cells/ml in the F12 culture medium supplemented with 10% FCS. One hundred μl of the suspension was added to each well of 96-well microculture plates, and cultured at 37° C. in an atmosphere of 5% carbon dioxide for 24 hours, to which 100 μl of the test solution was added and cultured for further 48 hours. After the culture, 100 μl of the supernatant was removed and the absorbancy at 550 nm was measured in the same way as the colormetry using MTT in Experimental Example 1. The percent suppression was calculated by the following formula used as the index of cytotoxicity. [formula]
# [2] = system: mouse L929 cells; test: cytotoxicity to mouse L929 cells; format: cell-based; conditions: 550 nm
# Method: as §1, §2
# [3] = system: mouse allogenic mixed lymphocyte reaction (BALB/c responder, C57BL/6 stimulator spleen cells); test: mouse allogenic mixed lymphocyte reaction (MLR), blastogenesis by 3H-thymidine uptake; format: cell-based; conditions: for inhibition at 0.001 µg/mL / inhibition at 0.01 µg/mL / inhibition at 0.1 µg/mL: Mus musculus, Lymphocyte, read-out: Suppression
# [4] = cytotoxicity to tumor cell line MOLT4; format: cell-based, human; conditions: human, molt4 cells, read-out: Suppression
# In short: (§3)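 Human tumour lines at 2×10^5 cells/ml in RPMI1640 with 20% FCS were mixed 1:1 with test solution and cultured 72 h at 37° C, 5% CO2. MTT colorimetry at 550 nm; percent suppression served as the cytotoxicity index.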
# [5] = system: MOLT4; test: cytotoxicity to tumor cell line MOLT4; format: cell-based, human
# In short: as §3
# [6] = system: IL2-dependent mouse cell line CTLL-2; test: suppression of IL-2 induced 3H-thymidine incorporation of CTLL-2; format: cell-based; conditions: 72 hrs, second run (control 30168 cpm); for inhibition at 0.1 µg/mL / inhibition at 1 µg/mL: Mus musculus, CTLL-2; for inhibition at 0.1 µg/mL: read-out: Suppression
# [7] = in vitro; format: cell-based, human; conditions: human, read-out: Suppression
# [8] = system: K562; test: in vitro; format: cell-based, human
smiles,measurement,setting,value
CCCCCCC(O)CCCCCCCCCC(O)C(O)C(N)(CO)C(=O)O (stereo not drawn) [Example 9],cytotoxicity at 48 h,[1]; 1 μg/ml,0%
same,cytotoxicity at 48 h,[1]; 10 μg/ml,0%
same,cytotoxicity at 48 h,[1]; 100 μg/ml,1%
same,Absorbancy,[2]; 1 μg/ml,0.749
same,Absorbancy,[2]; 10 μg/ml,0.747
same,Absorbancy,[2]; 100 μg/ml,0.567
same,3H-thymidine uptake,[3]; 0.001 μg/ml,25682 cpm
same,3H-thymidine uptake,[3]; 0.01 μg/ml,23668 cpm
same,3H-thymidine uptake,[3]; 0.1 μg/ml,3167 cpm
same,inhibition at 0.001 µg/mL,[3]; 0.001 μg/ml,7.5%
same,inhibition at 0.01 µg/mL,[3]; 0.01 μg/ml,17.1%
same,inhibition at 0.1 µg/mL,[3]; 0.1 μg/ml,100%
same,cytotoxicity at 72 h,[4]; 0.1 μg/ml,23.4%
same,cytotoxicity at 72 h,[4]; 1.0 μg/ml,9%
same,cytotoxicity at 72 h,[4]; 10.0 μg/ml,2.1%
same,Absorbancy,[5]; 0.1 μg/ml,0.111
same,Absorbancy,[5]; 1.0 μg/ml,0.132
same,Absorbancy,[5]; 10.0 μg/ml,0.142
same,3H-thymidine uptake,[6]; 0.1 μg/ml,33835 cpm
same,3H-thymidine uptake,[6]; 1 μg/ml,2247 cpm
same,inhibition at 0.1 µg/mL,[6]; 0.1 μg/ml,0%
same,inhibition at 1 µg/mL,[6]; 1 μg/ml,92.7%
same,cytotoxicity at 72 h,"[7]; ccrf-cem cells, 0.1 μg/ml",0%
same,cytotoxicity at 72 h,"[7]; ccrf-cem cells, 1.0 μg/ml",0%
same,cytotoxicity at 72 h,"[7]; ccrf-cem cells, 10.0 μg/ml",1.7%
same,cytotoxicity at 72 h,"[7]; hl60 cells, 0.1 μg/ml",13.8%
same,cytotoxicity at 72 h,"[7]; hl60 cells, 1.0 μg/ml",16.7%
same,cytotoxicity at 72 h,"[7]; hl60 cells, 10.0 μg/ml",20.9%
same,cytotoxicity at 72 h,"[7]; k562 cells, 0.1 μg/ml",1.8%
same,cytotoxicity at 72 h,"[7]; k562 cells, 1.0 μg/ml",5.5%
same,cytotoxicity at 72 h,"[7]; k562 cells, 10.0 μg/ml",17.7%
same,cytotoxicity at 72 h,"[7]; kb cells, 0.1 μg/ml",0%
same,cytotoxicity at 72 h,"[7]; kb cells, 1.0 μg/ml",0%
same,cytotoxicity at 72 h,"[7]; kb cells, 10.0 μg/ml",4.7%
same,cytotoxicity at 72 h,"[7]; pc-14 cells, 0.1 μg/ml",14.8%
same,cytotoxicity at 72 h,"[7]; pc-14 cells, 1.0 μg/ml",7%
same,cytotoxicity at 72 h,"[7]; pc-14 cells, 10.0 μg/ml",21.1%
same,cytotoxicity at 72 h,"[7]; u937 cells, 0.1 μg/ml",0%
same,cytotoxicity at 72 h,"[7]; u937 cells, 1.0 μg/ml",0%
same,cytotoxicity at 72 h,"[7]; u937 cells, 10.0 μg/ml",0%
same,Absorbancy,[8]; 0.1 μg/ml,0.378
same,Absorbancy,[8]; 1.0 μg/ml,0.364
same,Absorbancy,[8]; 10.0 μg/ml,0.317
CCCCCCC(O)CCCCCCCCCC1OC(=O)C(N)(CO)C1O (stereo not drawn) [Example 10],cytotoxicity at 48 h,[1]; 1 μg/ml,0%
same,cytotoxicity at 48 h,[1]; 10 μg/ml,0%
same,cytotoxicity at 48 h,[1]; 100 μg/ml,96%
same,Absorbancy,[2]; 1 μg/ml,0.722
same,Absorbancy,[2]; 10 μg/ml,0.661
same,Absorbancy,[2]; 100 μg/ml,0.023
same,3H-thymidine uptake,[3]; 0.001 μg/ml,19595 cpm
same,3H-thymidine uptake,[3]; 0.01 μg/ml,19019 cpm
same,3H-thymidine uptake,[3]; 0.1 μg/ml,2405 cpm
same,inhibition at 0.001 µg/mL,[3]; 0.001 μg/ml,36.4%
same,inhibition at 0.01 µg/mL,[3]; 0.01 μg/ml,39.1%
same,inhibition at 0.1 µg/mL,[3]; 0.1 μg/ml,100%
same,cytotoxicity at 72 h,[4]; 0.1 μg/ml,0%
same,cytotoxicity at 72 h,[4]; 1.0 μg/ml,0%
same,cytotoxicity at 72 h,[4]; 10.0 μg/ml,0%
same,Absorbancy,[5]; 0.1 μg/ml,0.148
same,Absorbancy,[5]; 1.0 μg/ml,0.159
same,Absorbancy,[5]; 10.0 μg/ml,0.170
same,3H-thymidine uptake,[6]; 0.1 μg/ml,28083 cpm
same,3H-thymidine uptake,[6]; 1 μg/ml,1844 cpm
same,inhibition at 0.1 µg/mL,[6]; 0.1 μg/ml,6.9%
same,inhibition at 1 µg/mL,[6]; 1 μg/ml,94.1%
same,cytotoxicity at 72 h,"[7]; ccrf-cem cells, 0.1 μg/ml",2.9%
same,cytotoxicity at 72 h,"[7]; ccrf-cem cells, 1.0 μg/ml",6.5%
same,cytotoxicity at 72 h,"[7]; ccrf-cem cells, 10.0 μg/ml",6.8%
same,cytotoxicity at 72 h,"[7]; hl60 cells, 0.1 μg/ml",14.4%
same,cytotoxicity at 72 h,"[7]; hl60 cells, 1.0 μg/ml",20.5%
same,cytotoxicity at 72 h,"[7]; hl60 cells, 10.0 μg/ml",22.3%
same,cytotoxicity at 72 h,"[7]; k562 cells, 0.1 μg/ml",0%
same,cytotoxicity at 72 h,"[7]; k562 cells, 1.0 μg/ml",10.9%
same,cytotoxicity at 72 h,"[7]; k562 cells, 10.0 μg/ml",19.2%
same,cytotoxicity at 72 h,"[7]; kb cells, 0.1 μg/ml",0%
same,cytotoxicity at 72 h,"[7]; kb cells, 1.0 μg/ml",0%
same,cytotoxicity at 72 h,"[7]; kb cells, 10.0 μg/ml",16.4%
same,cytotoxicity at 72 h,"[7]; pc-14 cells, 0.1 μg/ml",8.6%
same,cytotoxicity at 72 h,"[7]; pc-14 cells, 1.0 μg/ml",13.3%
same,cytotoxicity at 72 h,"[7]; pc-14 cells, 10.0 μg/ml",33.1%
same,cytotoxicity at 72 h,"[7]; u937 cells, 0.1 μg/ml",6.5%
same,cytotoxicity at 72 h,"[7]; u937 cells, 1.0 μg/ml",7.2%
same,cytotoxicity at 72 h,"[7]; u937 cells, 10.0 μg/ml",11.3%
same,Absorbancy,[8]; 0.1 μg/ml,0.390
same,Absorbancy,[8]; 1.0 μg/ml,0.343
same,Absorbancy,[8]; 10.0 μg/ml,0.311
CCCCCCC(=O)CCCCCC/C=C/CC1OC(=O)C(CO)(NC(C)=O)C1O (stereo not drawn) [Example 11],cytotoxicity at 48 h,[1]; 1 μg/ml,0%
same,cytotoxicity at 48 h,[1]; 10 μg/ml,0%
same,cytotoxicity at 48 h,[1]; 100 μg/ml,91.8%
same,Absorbancy,[2]; 1 μg/ml,0.710
same,Absorbancy,[2]; 10 μg/ml,0.669
same,Absorbancy,[2]; 100 μg/ml,0.047
same,3H-thymidine uptake,[3]; 0.001 μg/ml,32597 cpm
same,3H-thymidine uptake,[3]; 0.01 μg/ml,30777 cpm
same,3H-thymidine uptake,[3]; 0.1 μg/ml,23430 cpm
same,inhibition at 0.001 µg/mL,[3]; 0.001 μg/ml,0%
same,inhibition at 0.01 µg/mL,[3]; 0.01 μg/ml,0%
same,inhibition at 0.1 µg/mL,[3]; 0.1 μg/ml,18.2%
same,cytotoxicity at 72 h,[4]; 0.1 μg/ml,0%
same,cytotoxicity at 72 h,[4]; 1.0 μg/ml,0%
same,cytotoxicity at 72 h,[4]; 10.0 μg/ml,11.7%
same,Absorbancy,[5]; 0.1 μg/ml,0.182
same,Absorbancy,[5]; 1.0 μg/ml,0.150
same,Absorbancy,[5]; 10.0 μg/ml,0.128
same,3H-thymidine uptake,[6]; 0.1 μg/ml,33948 cpm
same,3H-thymidine uptake,[6]; 1 μg/ml,4876 cpm
same,inhibition at 0.1 µg/mL,[6]; 0.1 μg/ml,0%
same,inhibition at 1 µg/mL,[6]; 1 μg/ml,84%
same,cytotoxicity at 72 h,"[7]; ccrf-cem cells, 0.1 μg/ml",0%
same,cytotoxicity at 72 h,"[7]; ccrf-cem cells, 1.0 μg/ml",4.2%
same,cytotoxicity at 72 h,"[7]; ccrf-cem cells, 10.0 μg/ml",12.9%
same,cytotoxicity at 72 h,"[7]; hl60 cells, 0.1 μg/ml",9%
same,cytotoxicity at 72 h,"[7]; hl60 cells, 1.0 μg/ml",12.6%
same,cytotoxicity at 72 h,"[7]; hl60 cells, 10.0 μg/ml",27%
same,cytotoxicity at 72 h,"[7]; k562 cells, 0.1 μg/ml",17.7%
same,cytotoxicity at 72 h,"[7]; k562 cells, 1.0 μg/ml",12.5%
same,cytotoxicity at 72 h,"[7]; k562 cells, 10.0 μg/ml",34.5%
same,cytotoxicity at 72 h,"[7]; kb cells, 0.1 μg/ml",7%
same,cytotoxicity at 72 h,"[7]; kb cells, 1.0 μg/ml",5.8%
same,cytotoxicity at 72 h,"[7]; kb cells, 10.0 μg/ml",30.1%
same,cytotoxicity at 72 h,"[7]; pc-14 cells, 0.1 μg/ml",6.5%
same,cytotoxicity at 72 h,"[7]; pc-14 cells, 1.0 μg/ml",12.7%
same,cytotoxicity at 72 h,"[7]; pc-14 cells, 10.0 μg/ml",40%
same,cytotoxicity at 72 h,"[7]; u937 cells, 0.1 μg/ml",0%
same,cytotoxicity at 72 h,"[7]; u937 cells, 1.0 μg/ml",0%
same,cytotoxicity at 72 h,"[7]; u937 cells, 10.0 μg/ml",23%
same,Absorbancy,[8]; 0.1 μg/ml,0.317
same,Absorbancy,[8]; 1.0 μg/ml,0.337
same,Absorbancy,[8]; 10.0 μg/ml,0.257
